The nature of data set [1]: Solubility of sunscreens using cocoil glyceryl acetal as solubilizing agent. The format is physicochemical. Conditions: solvent cocoil glyceryl acetal.
The nature of data set [2]: Tests of skin irritation (OECD and GHS). The format is in vivo. The text has this:
Two new batches of cocoil glyceryl acetal were sent to confirm the tests of dermal irritation.

Data set [3] in a line: Tests of oral toxicity (GHS classification). Conditions: rules of GHS. The format is in vivo.
Data set [4] can be described thus: Tests of ocular irritation (OECD and GHS). The format is in vivo. Conditions: rules of OECD and GHS. The text has this:
In the tests of ocular irritation, the product has been classified as non-irritating according to the rules of OECD and GHS.

Regarding `COc1ccc(C(=O)CC(=O)c2ccc(C(C)(C)C)cc2)cc1` [4-(1,1-dimethylethyl)-4-methoxydibenzoylmethane], in data set [1], the “Solubility at 25° C.” value is 14.0 grams/100 grams of cocoil glyceryl acetal.
As for `CCCCCCOC(=O)c1ccccc1C(=O)c1ccc(N(CC)CC)cc1O` [Diethylamino hydroxybenzoi hexyl benzoate], the “Solubility at 25° C.” value in data set [1] is given as 18.0 grams/100 grams of cocoil glyceryl acetal.
Consider `CCCCC(CC)COC(=O)c1ccc(Nc2nc(Nc3ccc(C(=O)OCC(CC)CCCC)cc3)nc(Nc3ccc(C(=O)OCC(CC)CCCC)cc3)n2)cc1` (stereo not shown) [Ethylhexyl Triazone], for which, in data set [1], the “Solubility at 25° C.” value is reported as 16.0 grams/100 grams of cocoil glyceryl acetal.
Consider cocoil glyceryl acetal, for which, in data set [2] (one of the tests), the Skin irritation finding result is on record as “mild dermal irritation”. Moreover, the Skin irritation classification result in data set [2] (two tests, rules of OECD and GHS) was “non-irritating”. Moreover, in data set [3], the Oral toxicity classification result is “class 5 (non-toxic)”. In addition, the Ocular irritation classification entry in data set [4] is reported as “non-irritating”.

The values above are taken from patent US20170174649A1, “ESTERS OF ACETALS, COMPOSITION THEREOF, METHODS OF PREPARATION AND MAIN USES THEREOF IN COSMETIC AREA” (GLYCEROSOLUTION QUIMICA LTDA, priority 2015, published 2017).
